Reference: patent US10501443B2, “Pyridone compound as c-met inhibitor” (FUJIAN COSUNTER PHARMACEUTICAL CO., LTD., priority 2016, dated 2019)

Assays:
[1] = t1/2 of liver particle metabolism, mice; assay type: in vitro ADME; details: mouse, liver particle (liver microsomes)
[2] = system: human liver cancer MHCC97H cell xenograft; experiment: Pharmacodynamics assay of MHCC97H liver cancer cell subcutaneous xenograft tumor model; assay type: in vivo, BALB/c nude mice; details: for Tumor volume (24th day): 24th day after administration, average ± SEM; for T/C / TGI: based on 24th day tumor volume
Description: Assay 3: Pharmacodynamics Assay of MHCC97H Liver Cancer Cell Subcutaneous Xanograft Tumor Model
MHCC97H cells were cultured in a single layer in-vitro. The culturing condition was RPMI1640 medium supplemented with 10% heat-inactivated fetal bovine serum, 1% penicillin-streptomycin double antibody under 37° C., 5% carbon dioxide. Digestion and passage treatment with trypsin-EDTA was done twice a week. When the cells are in the exponential growing phase, the cells were collected, counted and inoculated.
BALB/c nude mice, male. 6-8 weeks old, weighting 18-22 g.
0.2 mL of a cell suspension containing 5×10^6 MHCC97H was subcutaneously inoculated into the right back of each mouse. Drugs were administrated by group after the average tumor volume reached approximately 172 mm^3.
Aim of the assay: investigation of whether the tumor growth was inhibited, delayed or cured. The diameters of the tumor was measured twice a week using vernier calipers. The formula for calculating the tumor volume is V=0.5a×b2, and a and b represent the long and short diameters of the tumor respectively. The antitumor effect (TGI) of the compounds was evaluated by T-C (days) and T/C (%).

[3] = t1/2 of liver particle metabolism, human; assay type: in vitro ADME; details: liver particle (liver microsomes)
[4] = t1/2 of liver particle metabolism, rat; assay type: in vitro ADME; details: liver particle (liver microsomes)
[5] = target: T1, c-MET enzyme (Homo sapiens, UniProt P08581); experiment: Binding activity of c-MET enzyme assay (LanthaScreen Eu Kinase Binding Assay); details: cMET 5 nM, Tracer 236 30 nM, 60 mins at 4° C.
T1 construct: His (6xHis); purchased invitrogen PV3143
T1 sequence (P08581 956-1390 limits assumed): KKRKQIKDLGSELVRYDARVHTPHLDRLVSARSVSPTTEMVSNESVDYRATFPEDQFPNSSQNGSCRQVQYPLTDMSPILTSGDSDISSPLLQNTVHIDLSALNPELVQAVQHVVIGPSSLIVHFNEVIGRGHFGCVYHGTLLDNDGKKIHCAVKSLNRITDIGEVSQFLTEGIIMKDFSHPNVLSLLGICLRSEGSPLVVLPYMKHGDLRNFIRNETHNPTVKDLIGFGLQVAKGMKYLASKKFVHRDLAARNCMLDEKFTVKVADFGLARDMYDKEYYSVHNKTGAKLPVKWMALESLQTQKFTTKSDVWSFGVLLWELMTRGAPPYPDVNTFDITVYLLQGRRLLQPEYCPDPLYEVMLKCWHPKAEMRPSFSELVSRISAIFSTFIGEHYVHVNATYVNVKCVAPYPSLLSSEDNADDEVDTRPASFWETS
Description: Assay 1: Binding Activity of c-MET Enzyme Assay
(§1) Reagents and Consumables:
Eu-Anti-His AB (MAb Anti 6HIS-K)
The binding of tracer agent and antibody and kinase leaded to high FRET standard, while using kinase inhibitor instead of tracer agent would lead to loss of FRET.
1) The antibody Eu-Anti-His AB, enzyme cMET, tracer agent Tracer236 were diluted.
Double duplicate wells were set and each of them 75 nL.

[6] = system: MHCC97H cells; experiment: Inhibitory effect assay on proliferation (CellTiter-Glo); assay type: cell-based; details: Homo sapiens, 72 h, MHCC97-H, 3 days incubation, read-out: MHCC97H cell IC50
Text: Assay 2: Inhibitory Effect Assay on Proliferation
as §1
1) Cell culture: DMEM cell medium, fetal bovine serum, DPBS
3) Detection reagent: live cell detection kit CellTiter-Glo
4) Other major consumables and reagents: compound dilution plate, intermediate plate, test plate, DMSO
The amount of ATP directly reflects the number of cells and the state of the cells, thus the number of living cells could be directly detected by quantitatively measuring ATP. The live cell assay kit contains luciferase and its substrate. With the presence of ATP, a stable optical signal would be emitted by the luciferase catalyzed substrate. Thus the amount of ATP in the cell could be determined by detecting the intensity of the signal. The light signal was proportional to the amount of ATP in the cell, while the ATP was positively correlated with the number of living cells, so that the proliferation in the cell could be detected. The assay plate used was analyzed by Envision from PE Corporation.
1. Preparation of the Cell Plates
MHCC97-H cells were seeded separately into 384-well plates, each of the well contains 500 cells. The cell plates were placed and incubated in a carbon dioxide incubator overnight.
2. Preparation of the compound.
Echo was used for 4-time dilution and 9 concentration was prepared, ready for double duplicate wells assay.
3. Compound Treatment of Cells
The compounds were transferred to cell plates at a starting concentration of 10 μM. The cell plates were incubated in a carbon dioxide incubator for 3 days.
The […] reagent was added into the cell plates and the plate was incubated at room temperature for 10 mins to stabilize the luminescence signal. PerkinElmer Envision multi-label analyzer was used for readings.

[7] = system: MHCC97H cell; details: read-out: MHCC97H cell IC50; prior art section; cited from earlier work
[8] = in words, prior art section; cited from earlier work

| SMILES | IC50 [5] [nM] | IC50 [6] [nM] | other results |
| --- | --- | --- | --- |
| CC(c1cccc(-c2ncc(OCC3CCN(C)CC3)cn2)c1)n1cc(-c2cc(C#N)ccn2)cc(F)c1=O (single isomer, unassigned) [Embodiment 1-2] |  |  | half-life [1]: 49.1 min; Tumor volume (24th day) [2]: 153 ± 12 mm^3; T/C [2]: 7.4%; TGI [2]: 101.0%; half-life [3]: 62.1 min; half-life [4]: 36.5 min |
| Cc1cc(-c2cc(F)c(=O)n([C@H](C)c3cccc(-c4ncc(OCC5CCN(C)CC5)cn4)c3)c2)on1 (single isomer, unassigned) [Embodiment 8-2] | 3.79 |  | Tumor volume (24th day) [2]: 161 ± 6 mm^3; T/C [2]: 7.8%; TGI [2]: 100.6% |
| Cc1cc(-c2cc(F)c(=O)n(C(C)c3cccc(-c4ncc(OCC5CCN(C)CC5)cn4)c3)c2)sn1 (centres unmarked) [Embodiment 2-2] | 9.33 | 13.8 |  |
| Cc1cc(-c2ccc(=O)n([C@H](C)c3cccc(-c4ncc(OCC5CCN(C)CC5)cn4)c3)c2)sn1 [Embodiment 3-2] |  | 19 |  |
| CN1CCC(COc2cnc(-c3cccc(Cn4cc(-c5cc(C#N)ccc5F)ccc4=O)c3)nc2)CC1 [Embodiment 4] | 6.16 | 72.9 |  |
| Cc1cc(-c2cc(F)c(=O)n(Cc3cccc(-c4ncc(OCC5CCN(C)CC5)cn4)c3)c2)sn1 [Embodiment 5] | 2.9 | 58.8 |  |
| CN1CCC(COc2cnc(-c3cccc(Cn4cc(-c5cc(C#N)ccn5)ccc4=O)c3)nc2)CC1 [Embodiment 6] | 4.37 | 32.9 |  |
| CN1CCC(COc2cnc(-c3cccc(Cn4cc(-c5cc(C#N)ccn5)cc(F)c4=O)c3)nc2)CC1 [Embodiment 7] | 15.5 | 22.3 |  |
| CN1CCC(COc2cnc(-c3cccc(Cn4cc(-c5cnn(C)c5)ccc4=O)c3)nc2)CC1 [Embodiment 10] | 69.5 | 166 |  |
| Cc1cc(-c2ccc(=O)n(Cc3cccc(-c4ncc(OCC5CCN(C)CC5)cn4)c3)c2)sn1 [Embodiment 11] | 5 | 93.8 |  |
| Cc1cc(-c2ccc(=O)n(Cc3cccc(-c4ncc(OCC5CCN(C)CC5)cn4)c3)c2)on1 [Embodiment 12] |  | 51.4 |  |
| CN1CCC(COc2cnc(-c3cccc(Cn4nc(-c5cccc(C#N)c5)ccc4=O)c3)nc2)CC1 [Tepotinib, reference compound] |  |  | IC50 [7]: 6.2 nM; clearance rate in vivo [8]: high clearance rate in vivo; metabolic stability [8]: low metabolic stability; Tumor volume (24th day) [2]: 255 ± 5 mm^3; T/C [2]: 12.4%; TGI [2]: 95.6% |
